# Reference: PubChem BioAssay AID1845204 (Molecular Pharmacology Branch, DTP, NCI, 2023)
# System: HSSY-II tumor spheroid viability
# Test: Anticancer human tumor HSSY-II cell line growth inhibition;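 further: spheroids exposed to compounds for seven days before reading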;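 on viability, T/C: percent of DMSO vehicle control viability so 100% = untreated level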
# Conditions: spheroids with HUVEC and MSC; for IC50: curve of first compound; for viability, T/C: stronger effect = lower value
# Outline: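 Complex spheroids of malignant cells with endothelial cells and mesenchymal stem cells; agents alone or combined, from near clinical Cmax (or 10 microM if unknown) down in half-log steps, 0.25% DMSO final.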
# [1] = second compound 1 µM, first compound 0.0316 µM
# [2] = second compound 1 µM, first compound 0.1 µM
# [3] = second compound 1 µM, first compound 0.316 µM
# [4] = second compound 1 µM, first compound 1 µM
# [5] = second compound 1 µM, first compound 3.16 µM
# [6] = second compound 1 µM, first compound 10 µM
# [7] = second compound 3.16 µM, first compound 0.0316 µM
# [8] = second compound 3.16 µM, first compound 0.1 µM
# [9] = second compound 3.16 µM, first compound 0.316 µM
# [10] = second compound 3.16 µM, first compound 1 µM
# [11] = second compound 3.16 µM, first compound 3.16 µM
# [12] = second compound 3.16 µM, first compound 10 µM
# [13] = second compound 10 µM, first compound 0.0316 µM
# [14] = second compound 10 µM, first compound 0.1 µM
# [15] = second compound 10 µM, first compound 0.316 µM
# [16] = second compound 10 µM, first compound 1 µM
# [17] = second compound 10 µM, first compound 3.16 µM
# [18] = second compound 10 µM, first compound 10 µM
# [19] = second compound 31.6 µM, first compound 0.0316 µM
# [20] = second compound 31.6 µM, first compound 0.1 µM
# [21] = second compound 31.6 µM, first compound 0.316 µM
# [22] = second compound 31.6 µM, first compound 1 µM
# [23] = second compound 31.6 µM, first compound 3.16 µM
# [24] = second compound 31.6 µM, first compound 10 µM
# [25] = second compound 100 µM, first compound 0.0316 µM
# [26] = second compound 100 µM, first compound 0.1 µM
# [27] = second compound 100 µM, first compound 0.316 µM
# [28] = second compound 100 µM, first compound 1 µM
# [29] = second compound 100 µM, first compound 3.16 µM
# [30] = second compound 100 µM, first compound 10 µM
SMILES,IC50 (second compound 1 µM) [µM],IC50 (second compound 3.16 µM) [µM],IC50 (second compound 10 µM) [µM],IC50 (second compound 31.6 µM) [µM],IC50 (second compound 100 µM) [µM],"viability, T/C [1] [%]","viability, T/C [2] [%]","viability, T/C [3] [%]","viability, T/C [4] [%]","viability, T/C [5] [%]","viability, T/C [6] [%]","viability, T/C [7] [%]","viability, T/C [8] [%]","viability, T/C [9] [%]","viability, T/C [10] [%]","viability, T/C [11] [%]","viability, T/C [12] [%]","viability, T/C [13] [%]","viability, T/C [14] [%]","viability, T/C [15] [%]",further results
CC(C)n1c(=O)n(C)c2cnc3cc(F)c(-c4ccc(OCCCN5CCCCC5)nc4)cc3c21 + Cn1nnc2c(C(N)=O)ncn2c1=O,6.4,6.7,6.54,5.86,9.48,100,97.4,97.2,89.6,72.7,35.8,102,102,98,93.7,70.1,39.2,103,107,97.4,"viability, T/C [16]: 97.4%; viability, T/C [17]: 73.7%; viability, T/C [18]: 36%; viability, T/C [19]: 108%; viability, T/C [20]: 96%; viability, T/C [21]: 92.4%; viability, T/C [22]: 89.9%; viability, T/C [23]: 70.9%; viability, T/C [24]: 32.4%; viability, T/C [25]: 88.5%; viability, T/C [26]: 92.9%; viability, T/C [27]: 86.5%; viability, T/C [28]: 76.1%; viability, T/C [29]: 69.6%; viability, T/C [30]: 48.4%"
COc1ccc([C@@H](O)c2cc(-c3ncnc4cc(N5CCOCC5)ccc34)c(F)cc2Cl)nn1 + Cn1nnc2c(C(N)=O)ncn2c1=O,2.23,1.92,1.91,1.88,1.06,102,95.8,90.8,64.5,44,13.5,100,94.3,88.7,63.5,39.4,16.8,94,92.1,89.6,"viability, T/C [16]: 66.6%; viability, T/C [17]: 36.8%; viability, T/C [18]: 15.9%; viability, T/C [19]: 98%; viability, T/C [20]: 98.2%; viability, T/C [21]: 81.5%; viability, T/C [22]: 64.8%; viability, T/C [23]: 38.5%; viability, T/C [24]: 20.6%; viability, T/C [25]: 83.2%; viability, T/C [26]: 83%; viability, T/C [27]: 70.7%; viability, T/C [28]: 48%; viability, T/C [29]: 32.3%; viability, T/C [30]: 12.8%"
